Consider 25 compounds from patent US12208088B2 (Genentech, Inc., priority 2018, dated 2025).

Where a name gives a salt, the structure may show the parent alone.

Sequence of HPK1 (Q92918 1-346 limits assumed): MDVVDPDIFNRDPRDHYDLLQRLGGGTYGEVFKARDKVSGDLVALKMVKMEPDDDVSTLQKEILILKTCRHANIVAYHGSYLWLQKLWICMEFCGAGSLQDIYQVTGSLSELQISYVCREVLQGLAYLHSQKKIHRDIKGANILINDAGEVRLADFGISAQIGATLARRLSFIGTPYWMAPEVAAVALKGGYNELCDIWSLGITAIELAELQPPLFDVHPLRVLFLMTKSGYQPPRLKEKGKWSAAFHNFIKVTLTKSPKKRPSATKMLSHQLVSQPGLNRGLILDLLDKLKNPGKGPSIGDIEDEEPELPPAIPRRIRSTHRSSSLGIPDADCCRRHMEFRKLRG

One test addresses HPK1 (Homo sapiens (Human), UniProt Q92918). Kind of test: HPK1 Lantha binding assay ("Lanth"). Particulars: binding assays; Morrison Ki fit. A digest of the protocol: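 TR-FRET binding competition using 2 nM HPK1, 2 nM Eu-anti-GST antibody and 15 nM Tracer222 at 23 °C. Compound was incubated 1 h with enzyme and antibody, then 1 h after tracer addition, with an 11-point 5-fold dilution series. Ki obtained from a Morrison fit that corrects for tracer concentration and Kd.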
Turning to `CN(C)C(=O)c1c(N)ccc(-c2cnc3c(c2Cl)[C@]2(CC[C@](C)(C#N)CC2)CN3)c1F` [Compound 250a, 6-Amino-3-((1s,4s)-4′-chloro-4-cyano-4-methyl-1′,2′-dihydrospiro[cyclohexane-1,3′-pyrrolo[2,3-b]pyridin]-5′-yl)-2-fluoro-N,N-dimethylbenzamide], the Ki worked out at 8.49 nM. Regarding `CN(C)C(=O)c1c(N)ccc(-c2cnc3c(c2Cl)[C@]2(CC[C@@H](CO)C2)CN3)c1F` [Compound 259c, 6-Amino-3-((1R,3R)-4′-chloro-3-(hydroxymethyl)-1′,2′-dihydrospiro[cyclopentane-1,3′-pyrrolo[2,3-b]pyridin]-5′-yl)-2-fluoro-N,N-dimethylbenzamide], affinity was put at a Ki of 3 nM. Same read-out and setting: the value for `CN1CCN(c2cc(C#N)cc3c(-c4cnc5c(c4)C4(CC4)CN5)c[nH]c23)C(=O)C1` [Compound 324, 3-(1′,2′-Dihydrospiro[cyclopropane-1,3′-pyrrolo[2,3-b]pyridin]-5′-yl)-7-(4-methyl-2-oxopiperazin-1-yl)-1H-indole-5-carbonitrile] was 30.4 nM; that for `N#Cc1ccc2[nH]cc(-c3cnc4c(c3Cl)[C@]3(CC[C@H](O)CC3)CN4)c2c1` [Compound 325a, 3-((1s,4s)-4′-Chloro-4-hydroxy-1′,2′-dihydrospiro[cyclohexane-1,3′-pyrrolo[2,3-b]pyridin]-5′-yl)-1H-indole-5-carbonitrile] was 40.7 nM. `Cc1n[nH]cc1-c1ccc2[nH]cc(-c3cnc4c(c3)C3(CC3)CN4)c2c1` [Compound 326, 5′-(5-(3-Methyl-1H-pyrazol-4-yl)-1H-indol-3-yl)-1′,2′-dihydrospiro[cyclopropane-1,3′-pyrrolo[2,3-b]pyridine]]: the Ki is 76 nM.

Take `COCCn1cc(-c2cnc3c(c2Cl)C2(CC=CC2)CN3)cn1` [Compound 327, 4′-Chloro-5′-(1-(2-methoxyethyl)-1H-pyrazol-4-yl)-1′,2′-dihydrospiro[cyclopentane-1,3′-pyrrolo[2,3-b]pyridin]-3-ene]: the Ki was 397 nM. The same measure, in the same setting: the value for `c1nc2c(cc1-c1c[nH]c3ccc(C4CC4)cc13)C1(CC1)CN2` [Compound 328, 5′-(5-Cyclopropyl-1H-indol-3-yl)-1′,2′-dihydrospiro[cyclopropane-1,3′-pyrrolo[2,3-b]pyridine]] was 289 nM; that for `c1cc2[nH]cc(-c3cnc4c(c3)C3(CC3)CN4)c2cn1` [Compound 329, 5-(1H-Pyrrolo[3,2-c]pyridin-3-yl)spiro[1,2-dihydropyrrolo[2,3-b]pyridine-3,1′-cyclopropane]] was 90 nM. The compound `CS(=N)(=O)c1ccc2[nH]cc(-c3cnc4c(c3)C3(CC3)CN4)c2c1` (stereo not drawn) [Compound 331, (3-(1′,2′-Dihydrospiro[cyclopropane-1,3′-pyrrolo[2,3-b]pyridin]-5′-yl)-1H-indol-5-yl)(imino)(methyl)-γ6-sulfanone] yielded an inhibition constant (Ki) of 243 nM. On the same count and under the same terms, the same measure for `c1ccc2c(c1)nnn2-c1cnc2c(c1)C1(CC1)CN2` [Compound 332, 5-(Benzotriazol-1-yl)spiro[1,2-dihydropyrrolo[2,3-b]pyridine-3,1′-cyclopropane]]: 570 nM; for `c1cc2c(-c3cnc4c(c3)C3(CC3)CN4)c[nH]c2cn1` [Compound 333, 5-(1H-Pyrrolo[2,3-c]pyridin-3-yl)spiro[1,2-dihydropyrrolo[2,3-b]pyridine-3,1′-cyclopropane]]: 42.3 nM; for `c1nnc(-c2ccc3[nH]cc(-c4cnc5c(c4)C4(CC4)CN5)c3c2)o1` [Compound 334, 2-(3-(1′,2′-Dihydrospiro[cyclopropane-1,3′-pyrrolo[2,3-b]pyridin]-5′-yl)-1H-indol-5-yl)-1,3,4-oxadiazole Formate Salt]: 48 nM.

Turning to `Cn1cnnc1-c1ccc2[nH]cc(-c3cnc4c(c3)C3(CC3)CN4)c2c1` [Compound 335, 5′-(5-(4-Methyl-4H-1,2,4-triazol-3-yl)-1H-indol-3-yl)-1′,2′-dihydrospiro[cyclopropane-1,3′-pyrrolo[2,3-b]pyridine]], the affinity, expressed as Ki, was 130 nM.

For `Cc1cc2[nH]cc(-c3cnc4c(c3)C3(CC3)CN4)c2cc1-c1cnn(C)c1` [Compound 336, 5′-(6-Methyl-5-(1-methyl-1H-pyrazol-4-yl)-1H-indol-3-yl)-1′,2′-dihydrospiro[cyclopropane-1,3′-pyrrolo[2,3-b]pyridine]], the affinity, expressed as Ki, was 46.6 nM.

In turn, `Fc1ccc2[nH]cc(-c3cnc4c(c3)C3(CC3)CN4)c2c1` [Compound 338, 5′-(5-Fluoro-1H-indol-3-yl)-1′,2′-dihydrospiro[cyclopropane-1,3′-pyrrolo[2,3-b]pyridine]] showed a Ki of 79.7 nM. Turning to `CN(C)C(=O)c1ccc2[nH]cc(-c3cnc4c(c3)C3(CC3)CN4)c2c1` [Compound 339, 3-(1′,2′-Dihydrospiro[cyclopropane-1,3′-pyrrolo[2,3-b]pyridin]-5′-yl)-N,N-dimethyl-1H-indole-5-carboxamide], the Ki was 373 nM. Take `CN(c1cc(C#N)cc2c(-c3cnc4c(c3)C3(CC3)CN4)c[nH]c12)S(C)(=O)=O` [Compound 340, N-(5-Cyano-3-(1′,2′-dihydrospiro[cyclopropane-1,3′-pyrrolo[2,3-b]pyridin]-5′-yl)-1H-indol-7-yl)-N-methylmethanesulfonamide]: the affinity, expressed as Ki, was 14.8 nM. In turn, `CN(c1cc(C#N)cc2c(-c3cnc4c(c3)C3(CC3)CN4)cn(C)c12)S(C)(=O)=O` [Compound 341, N-(5-Cyano-3-(1′,2′-dihydrospiro[cyclopropane-1,3′-pyrrolo[2,3-b]pyridin]-5′-yl)-1-methyl-1H-indol-7-yl)-N-methylmethanesulfonamide] registered a Ki of 12.4 nM. The Ki values of the last two compounds are within 1.5-fold of each other. In turn, `N#CCc1ccc2[nH]cc(-c3cnc4c(c3)C3(CC3)CN4)c2c1` [Compound 342, 2-(3-(1′,2′-Dihydrospiro[cyclopropane-1,3′-pyrrolo[2,3-b]pyridin]-5′-yl)-1H-indol-5-yl)acetonitrile] yielded a Ki of 73.4 nM. Compound `CN(c1ccc2c(-c3cnc4c(c3)C3(CC3)CN4)c[nH]c2c1)c1cnn(C)c1` [Compound 343, 3-(1′,2′-Dihydrospiro[cyclopropane-1,3′-pyrrolo[2,3-b]pyridin]-5′-yl)-N-methyl-N-(1-methyl-1H-pyrazol-4-yl)-1H-indol-6-amine] had a Ki of 74 nM. Still for that read-out and setting: the value for `N#Cc1ccc2ccn(-c3cnc4c(c3)C3(CC3)CN4)c2c1` [Compound 344, 1-(1′,2′-Dihydrospiro[cyclopropane-1,3′-pyrrolo[2,3-b]pyridin]-5′-yl)-1H-indole-6-carbonitrile] was 590 nM; that for `Cn1cc(Nc2ccc3c(-c4cnc5c(c4)C4(CC4)CN5)c[nH]c3c2)cn1` [Compound 345, 3-(1′,2′-Dihydrospiro[cyclopropane-1,3′-pyrrolo[2,3-b]pyridin]-5′-yl)-N-(1-methyl-1H-pyrazol-4-yl)-1H-indol-6-amine] was 94 nM.

In another test the test system is primary human pan T cells. Put plainly: Human T-cell IL2 induction assay. Particulars: IL-2, anti-CD3/anti-CD28 stimulated T cells; assayed concentration 0.926 μM. Type of test: cell-based. As to the method: Example B3: Human T-Cell IL2 Induction Assay
Anti-CD3 and anti-CD28 activates TCR signaling in primary human pan T cells leading to IL-2 promoter induction. Secreted IL-2 in cell culture supernatant is detected by electrochemiluminescence using a capture antibody against IL-2 and an anti-IL-2 antibody labeled with SULFO-tag.
See www.mesoscale.com for additional electrochemiluminescence technology information.
Incubate primary human pan T cells with varying concentrations of test compounds for 30 minutes in a humidified incubator at 37° C. and 5% CO2. Transfer cells to a plate pre-coated with a fixed concentration of anti-human CD3 (determined separately for each donor lot) and add soluble anti-human CD28 (final concentration=1 μg/ml). Stimulate cells in a humidified incubator at 37° C. and 5% CO2 for 4 hours. Transfer 25 μl of supernatant to a MSD single spot plate pre-coated with an anti-human IL-2 antibody. Incubate MSD plate overnight at 4° C. with gentle shaking. Wash MSD plate 4× with wash buffer. Add SULFO-tagged detection antibody at a 1:50 dilution and incubate at room temperature shaking for 2 hours. Wash MSD plate 4× with wash buffer and add […] 2×MSD read buffer. Read on an MSD instrument. Normalize data to stimulated/untreated controls to calculate % activity at each concentration of compound.
• Frozen Primary Human Pan-T Cells (StemCell Technologies #70024) • anti-human CD3 (OKT3 clone) (eBioscience #16-0037-81) • anti-human CD28 (CD28.2 clone) (BD #555725) • 96-well Human IL-2 tissue culture kit (MSD #K151AHB-4) Instrumentation: • Biomek FX for liquid handling (Beckman Coulter) • MSD SECTOR S 600 (Meso Scale Discovery)
Exemplary compounds of Formula (I) were tested in the human T-cell IL-2 induction assays. The % increase measured for IL-2 in cells treated by the test compounds relative to untreated cells are provided in Table B2 for certain compounds.
Consider `Cc1c(CC#N)ccnc1-c1cc(N)cc(-c2cnc3c(c2Cl)[C@@]2(CC[C@@](C)(C#N)C2)CN3)c1` (stereo in doubt) [Compound 274b, (1S,3R)-5′-(3-Amino-5-(4-(cyanomethyl)-3-methylpyridin-2-yl)phenyl)-4′-chloro-3-methyl-1′,2′-dihydrospiro[cyclopentane-1,3′-pyrrolo[2,3-b]pyridine]-3-carbonitrile], for which the “% IL relative to untreated cells” value is reported as 564%. Same read-out and setting: the value for `Cc1c(CC#N)ccnc1-c1cccc(-c2cnc3c(c2Cl)[C@@]2(CC[C@@](C)(C(N)=O)C2)CN3)c1F` [Compound 267b, (1S,3R)-4′-Chloro-5′-(3-(4-(cyanomethyl)-3-methylpyridin-2-yl)-2-fluorophenyl)-3-methyl-1′,2′-dihydrospiro[cyclopentane-1,3′-pyrrolo[2,3-b]pyridine]-3-carboxamide] was 298%.

The test is the same for the next values; noted with them: IL-2, anti-CD3/anti-CD28 stimulated T cells; assayed concentration 2.8 μM.
On to `CC[C@H]1C[C@@]12CNc1ncc(-c3ccc(N)c(C(=O)N(C)C)c3F)cc12` [Compound 243a, 6-Amino-3-((1R,2S)-2-ethyl-1′,2′-dihydrospiro[cyclopropane-1,3′-pyrrolo[2,3-b]pyridin]-5′-yl)-2-fluoro-N,N-dimethylbenzamide], for which the “% IL relative to untreated cells” value turned out to be 111%.

The test is the same for the next values; noted with them: IL-2, anti-CD3/anti-CD28 stimulated T cells; assayed concentration 8.3 μM.
As for `CN(C)C(=O)c1c(N)ccc(-c2cnc3c(c2Cl)[C@]2(CC[C@@H](CO)C2)CN3)c1F` [Compound 259c, 6-Amino-3-((1R,3R)-4′-chloro-3-(hydroxymethyl)-1′,2′-dihydrospiro[cyclopentane-1,3′-pyrrolo[2,3-b]pyridin]-5′-yl)-2-fluoro-N,N-dimethylbenzamide], the “% IL relative to untreated cells” value was 604%.

Still in this test, the particulars now being: IL-2, anti-CD3/anti-CD28 stimulated T cells; assayed concentration 25 μM.
Take `CN(C)C(=O)c1c(N)ccc(-c2cnc3c(c2Cl)[C@]2(CC[C@](C)(C#N)CC2)CN3)c1F` [Compound 250a, 6-Amino-3-((1s,4s)-4′-chloro-4-cyano-4-methyl-1′,2′-dihydrospiro[cyclohexane-1,3′-pyrrolo[2,3-b]pyridin]-5′-yl)-2-fluoro-N,N-dimethylbenzamide]: the “% IL relative to untreated cells” value came out at 504%.

In general, Ki refers to a measure of affinity in units of concentration, obtained from inhibition or displacement.
